Calls of active or inactive are those of the source.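 Rule for the calls: active = compounds with mean IC50 at or below 50 µM in this heat-shock counterscreen, flagging likely artifacts; inactive = the rest.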
The compounds below were run on C. elegans VP596 Phsp-16.2 GFP/RFP heat-shock reporter (assay: inhibitors of hsp-16.2 heat-shock response – whole organism, C. elegans VP596, GFP/RFP ratio fluorescence, counter-screen for SKN-1 inhibitor project, SAR follow-up (AID 651993)).
COc1cc(CNC(C)c2ccccc2)cc(Br)c1OCc1ccc(F)cc1 (stereo not drawn) was tested, and the IC50 was > 64 µM (inactive). With CCOc1cc(CNC2CCCC2)cc(Cl)c1OCc1ccccc1 the IC50 was > 64 µM (inactive). Brc1ccc(-c2nc(-c3ccccc3)no2)o1 was tested, and the IC50 was > 64 µM (inactive). With O=C(/C=C/Nc1ccccc1F)c1cccs1 the IC50 was > 64 µM (inactive). With Fc1ccc(COc2ccc(-c3nnco3)cc2)c(Cl)c1 the IC50 was > 64 µM (inactive). Brc1ccc(-c2nnc(-c3ccco3)o2)cc1 was tested, and the IC50 was > 64 µM (inactive). c1ccc(-c2nc(-c3ccncc3)no2)cc1 was tested, and the IC50 was > 64 µM (inactive). In the case of O=C(/C=C/Nc1ccc(Br)cc1F)c1ccco1, the IC50 is reported as > 64 µM (inactive). In the case of Fc1ccc(-c2csc(-c3ccncc3)n2)cc1, the IC50 is reported as > 64 µM (inactive). For Brc1ccc(CSc2nnc(-c3cccnc3)o2)cc1, the IC50 was > 64 µM (inactive). For c1ccc(-c2csc(-c3ccncc3)n2)cc1, the IC50 was > 64 µM (inactive). In the case of c1ccc2oc(SCc3nc4ccccc4s3)nc2c1, the IC50 is reported as > 64 µM (inactive). Clc1ccc(-c2nnc(-c3ccco3)o2)cc1 was tested, and the IC50 was > 64 µM (inactive). In the case of O=C(/C=C/c1cccs1)c1ccc(Br)cc1, the IC50 is reported as > 64 µM (inactive). For O=C(Nc1nccs1)c1ccc2ccccc2n1, the IC50 was > 64 µM (inactive). CCOC(=O)c1c(-c2ccc(-c3ccccc3)cc2)csc1NC(=O)CNCCN(C)C was tested, and the IC50 was > 64 µM (inactive). In the case of CCOc1cc(CNC2CCCC2)cc(Cl)c1OCc1ccc(F)cc1, the IC50 is reported as > 64 µM (inactive). For O=C(Nc1nc(-c2ccc(Cl)s2)cs1)c1cccs1, the IC50 was > 64 µM (inactive). Cc1oc(-c2ccc(-c3ccccc3)cc2)nc1CN(C)C1CCOC1 (stereo not drawn) was tested, and the IC50 was > 64 µM (inactive). With Cc1ccc(CSc2nnc(-c3ccco3)o2)cc1 the IC50 was > 64 µM (inactive). CCOc1ccc(-c2nc(-c3cccnc3)no2)cc1 was tested, and the IC50 was > 64 µM (inactive). CC(C)c1ccc(C(=O)Nc2ccc(CN3CCOCC3)cc2)cc1 was tested, and the IC50 was > 64 µM (inactive). In the case of Clc1ccc(-c2nnc(-c3ccccc3)o2)c(Cl)c1, the IC50 is reported as > 64 µM (inactive). For Fc1ccc(COc2ccc(-c3nnco3)cc2)cc1, the IC50 was > 64 µM (inactive). In the case of Clc1ccc(Nc2nc(-c3cccs3)cs2)nc1, the IC50 is reported as > 64 µM (inactive). With O=C(/C=C/Nc1ccc(F)c(F)c1)c1cccs1 the IC50 was > 64 µM (inactive). With Cc1ccc(-c2noc(-c3cccs3)n2)cc1 the IC50 was > 64 µM (inactive). In the case of O=C(Nc1nc(-c2ccccc2)cs1)c1cccs1, the IC50 is reported as > 64 µM (inactive). In the case of CCOC(=O)Nc1nc(-c2ccc(F)cc2F)cs1, the IC50 is reported as > 64 µM (inactive). Clc1ccccc1-c1nc(-c2ccncc2)no1 was tested, and the IC50 was > 64 µM (inactive). With c1ccc(-c2csc(Nc3ccccn3)n2)cc1 the IC50 was > 64 µM (inactive). O=C(Nc1nc(-c2ccc(Cl)s2)cs1)c1ccco1 was tested, and the IC50 was > 64 µM (inactive). In the case of O=C(/C=C/c1ccccc1)Nc1ccc(CN2CCOCC2)cc1, the IC50 is reported as > 64 µM (inactive). With c1ccc2sc(SCc3ccc(-c4nnco4)cc3)nc2c1 the IC50 was > 64 µM (inactive). For Cc1ccc2nc(-c3ccc(NC(=S)NC4CC(C)(C)NC(C)(C)C4)cc3)sc2c1, the IC50 was > 64 µM (inactive). With CCOc1cc(CNCCSc2nnnn2C)cc(Br)c1OCc1ccc(F)cc1 the IC50 was > 64 µM (inactive). For O=C(Nc1ccc(CN2CCOCC2)cc1)c1cc2ccccc2o1, the IC50 was > 64 µM (inactive). Clc1ccccc1-c1nnc(-c2ccccc2Cl)o1 was tested, and the IC50 was > 64 µM (inactive). For O=C(/C=C/Nc1ccc(F)cc1F)c1ccco1, the IC50 was > 64 µM (inactive). For Brc1ccc(CSc2nnc(-c3ccco3)o2)cc1, the IC50 was > 64 µM (inactive). In the case of O=C(Nc1nc(-c2ccc(Cl)s2)cs1)c1ccccc1, the IC50 is reported as > 64 µM (inactive). In the case of COc1ccc(C(=O)Nc2nc(-c3cccs3)cs2)cc1, the IC50 is reported as > 64 µM (inactive). Cc1nc2ccccc2cc1OCc1ccc(F)cc1 gave an IC50 of 9.02 µM. In the case of O=C(/C=C/Nc1ccc(F)cc1F)c1cccs1, the IC50 is reported as > 64 µM (inactive). CSc1cccc(NC(=O)c2cccc3cccnc23)c1 was tested, and the IC50 was > 64 µM (inactive). With O=C(Nc1nc2c(ccc3ccccc32)s1)c1ccco1 the IC50 was > 64 µM (inactive). Fc1ccc(-c2csc(Nc3ccccn3)n2)cc1 was tested, and the IC50 was > 64 µM (inactive). In the case of COc1cc(CNC2CCCC2)cc(Cl)c1OCc1ccc(F)cc1, the IC50 is reported as > 64 µM (inactive). With O=C(/C=C/Nc1ccc(F)c(Cl)c1)c1ccco1 the IC50 was > 64 µM (inactive). For Cc1ccc(N=C/C(C(=O)C(F)(F)F)=C(\O)c2ccco2)cc1Cl, the IC50 was > 64 µM (inactive). With c1ccc(Nc2nc(-c3cccs3)cs2)nc1 the IC50 was > 64 µM (inactive). For Cc1ccccc1-c1noc(-c2cccs2)n1, the IC50 was > 64 µM (inactive). For Cc1cc(OCc2cccc(Cl)c2)c(C)cc1CN1CCOCC1, the IC50 was > 64 µM (inactive). O=C(/C=C/c1ccc(Br)cc1)c1ccc(NC2=NCCCS2)cc1 was tested, and the IC50 was > 64 µM (inactive). In the case of c1ccc(SCc2cc(-c3ccccc3)no2)cc1, the IC50 is reported as > 64 µM (inactive). COc1cc(CNC(C)(C)CO)cc(Br)c1OCc1ccc(Cl)cc1 was tested, and the IC50 was > 64 µM (inactive). In the case of CCc1ccc(-c2nc(-c3ccncc3)no2)cc1, the IC50 is reported as > 64 µM (inactive). For Cc1ccc(Nc2nc(-c3cccs3)cs2)nc1, the IC50 was > 64 µM (inactive).

Reference: PubChem BioAssay AID651993 (Sanford-Burnham Center for Chemical Genomics, 2013)
